Test results from patent US8173813B2, “Quinolone and tetrahydroquinolone and related compounds having NOS inhibitory activity” (NeurAxon, Inc., priority 2007, dated 2012).
Like-named read-outs stand apart in the source and are kept apart here. Blank lines part the entries; values can stand above or below the molecule they belong to.

Legend:
[1] = test system: Rats with L5/L6 spinal nerve ligation; experiment: Chung Spinal Nerve Ligation model, tactile allodynia; assay type: in vivo, rat; settings: standard dosings 3, 10, and 30 mg/kg injected IP
[2] = biological target: Nitric oxide synthase (neuronal, human recombinant) nNOS (Homo sapiens, UniProt P29475); experiment: Human nNOS enzyme assay ([3H]L-arginine to [3H]L-citrulline); assay type: biochemical; settings: for IC50: read-out: hnNOS IC50
Sequence of Nitric oxide synthase (neuronal, human recombinant) nNOS (P29475 whole entry): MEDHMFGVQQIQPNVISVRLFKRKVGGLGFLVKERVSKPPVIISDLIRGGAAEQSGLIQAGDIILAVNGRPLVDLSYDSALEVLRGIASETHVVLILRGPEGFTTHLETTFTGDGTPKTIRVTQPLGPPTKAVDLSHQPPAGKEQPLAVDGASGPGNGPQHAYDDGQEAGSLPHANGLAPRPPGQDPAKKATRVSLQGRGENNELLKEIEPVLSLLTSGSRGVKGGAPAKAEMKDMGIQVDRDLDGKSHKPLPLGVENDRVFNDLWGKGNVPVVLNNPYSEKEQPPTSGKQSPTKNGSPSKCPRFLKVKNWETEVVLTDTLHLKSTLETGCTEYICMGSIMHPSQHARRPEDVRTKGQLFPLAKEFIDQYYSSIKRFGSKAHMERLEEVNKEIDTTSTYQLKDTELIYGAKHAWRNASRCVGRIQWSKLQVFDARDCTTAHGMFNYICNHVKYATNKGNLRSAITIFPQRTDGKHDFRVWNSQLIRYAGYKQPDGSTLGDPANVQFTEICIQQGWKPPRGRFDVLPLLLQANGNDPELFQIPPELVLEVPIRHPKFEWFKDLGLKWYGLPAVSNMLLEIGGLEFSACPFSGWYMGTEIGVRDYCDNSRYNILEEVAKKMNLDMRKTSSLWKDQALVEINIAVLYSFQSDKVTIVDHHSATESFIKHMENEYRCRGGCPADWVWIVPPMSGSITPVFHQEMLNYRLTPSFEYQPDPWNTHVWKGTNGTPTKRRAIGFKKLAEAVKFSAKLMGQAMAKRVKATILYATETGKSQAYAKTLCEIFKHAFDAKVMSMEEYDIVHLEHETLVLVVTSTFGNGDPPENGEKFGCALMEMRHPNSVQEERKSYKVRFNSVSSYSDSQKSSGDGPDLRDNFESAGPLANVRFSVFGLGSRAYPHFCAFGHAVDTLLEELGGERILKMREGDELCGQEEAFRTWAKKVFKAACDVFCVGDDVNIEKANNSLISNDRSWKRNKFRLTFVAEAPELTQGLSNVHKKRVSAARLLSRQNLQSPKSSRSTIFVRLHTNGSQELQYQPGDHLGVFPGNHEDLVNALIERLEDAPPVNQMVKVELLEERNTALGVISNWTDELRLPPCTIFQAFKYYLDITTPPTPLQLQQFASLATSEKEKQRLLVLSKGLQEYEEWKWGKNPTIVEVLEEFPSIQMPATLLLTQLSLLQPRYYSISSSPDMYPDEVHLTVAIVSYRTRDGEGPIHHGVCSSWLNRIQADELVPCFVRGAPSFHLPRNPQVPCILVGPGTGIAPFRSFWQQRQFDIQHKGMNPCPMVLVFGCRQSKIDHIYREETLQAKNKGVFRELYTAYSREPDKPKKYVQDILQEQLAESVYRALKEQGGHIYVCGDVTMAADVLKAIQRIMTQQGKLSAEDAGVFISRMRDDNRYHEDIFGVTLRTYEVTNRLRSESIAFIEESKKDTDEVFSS

[3] = test system: Rats with L5/L6 spinal nerve ligation; experiment: Chung Spinal Nerve Ligation model, thermal hyperalgesia; assay type: in vivo, rat; settings: standard dosings 3, 10, and 30 mg/kg injected IP
[4] = test system: Male, Sprague Dawley rats; experiment: Porreca model of allodynia (inflammatory soup onto the dura, hindpaw von Frey); assay type: in vivo, rat
[5] = biological target: Recombinant human inducible NOS (iNOS) (Homo sapiens, UniProt P35228); experiment: Human iNOS enzyme assay, radiometric; assay type: biochemical; settings: read-out: hiNOS IC50
Sequence of Recombinant human inducible NOS (iNOS) (P35228 whole entry): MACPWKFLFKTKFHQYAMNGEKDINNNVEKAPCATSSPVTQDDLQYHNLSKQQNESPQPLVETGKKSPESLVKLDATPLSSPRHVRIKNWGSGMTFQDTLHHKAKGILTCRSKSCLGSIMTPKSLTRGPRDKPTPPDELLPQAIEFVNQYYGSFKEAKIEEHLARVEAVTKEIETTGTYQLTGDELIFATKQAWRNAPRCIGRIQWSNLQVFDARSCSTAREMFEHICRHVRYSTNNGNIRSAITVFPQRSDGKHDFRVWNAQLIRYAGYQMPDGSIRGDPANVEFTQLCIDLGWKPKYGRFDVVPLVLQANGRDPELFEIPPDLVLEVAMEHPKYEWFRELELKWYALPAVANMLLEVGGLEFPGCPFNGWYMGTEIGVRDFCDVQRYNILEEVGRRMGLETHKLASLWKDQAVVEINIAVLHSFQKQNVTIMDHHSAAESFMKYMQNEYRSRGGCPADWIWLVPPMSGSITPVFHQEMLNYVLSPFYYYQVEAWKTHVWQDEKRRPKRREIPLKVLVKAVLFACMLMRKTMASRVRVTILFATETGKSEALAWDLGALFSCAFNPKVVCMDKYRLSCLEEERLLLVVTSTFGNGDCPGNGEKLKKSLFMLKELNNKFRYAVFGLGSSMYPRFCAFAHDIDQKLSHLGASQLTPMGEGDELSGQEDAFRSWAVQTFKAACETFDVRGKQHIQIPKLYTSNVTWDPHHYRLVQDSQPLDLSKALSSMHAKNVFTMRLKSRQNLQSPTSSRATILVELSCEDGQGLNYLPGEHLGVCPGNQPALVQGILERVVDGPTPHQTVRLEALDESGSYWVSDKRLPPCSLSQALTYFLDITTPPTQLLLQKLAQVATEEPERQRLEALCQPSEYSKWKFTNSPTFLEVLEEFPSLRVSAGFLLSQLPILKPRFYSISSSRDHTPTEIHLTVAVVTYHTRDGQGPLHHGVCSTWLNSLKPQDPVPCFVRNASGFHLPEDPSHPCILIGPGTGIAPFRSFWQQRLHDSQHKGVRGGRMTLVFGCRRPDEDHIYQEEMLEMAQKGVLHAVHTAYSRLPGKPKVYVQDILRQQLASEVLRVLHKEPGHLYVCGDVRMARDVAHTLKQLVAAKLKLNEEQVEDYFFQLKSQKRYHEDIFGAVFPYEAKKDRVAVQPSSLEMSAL

[6] = biological target: Nitric oxide synthase (endothelial, human recombinant) eNOS (Homo sapiens, UniProt P29474); experiment: Human eNOS enzyme assay ([3H]L-arginine to [3H]L-citrulline); assay type: biochemical; settings: read-out: heNOS IC50
Sequence of Nitric oxide synthase (endothelial, human recombinant) eNOS (P29474 2-1203): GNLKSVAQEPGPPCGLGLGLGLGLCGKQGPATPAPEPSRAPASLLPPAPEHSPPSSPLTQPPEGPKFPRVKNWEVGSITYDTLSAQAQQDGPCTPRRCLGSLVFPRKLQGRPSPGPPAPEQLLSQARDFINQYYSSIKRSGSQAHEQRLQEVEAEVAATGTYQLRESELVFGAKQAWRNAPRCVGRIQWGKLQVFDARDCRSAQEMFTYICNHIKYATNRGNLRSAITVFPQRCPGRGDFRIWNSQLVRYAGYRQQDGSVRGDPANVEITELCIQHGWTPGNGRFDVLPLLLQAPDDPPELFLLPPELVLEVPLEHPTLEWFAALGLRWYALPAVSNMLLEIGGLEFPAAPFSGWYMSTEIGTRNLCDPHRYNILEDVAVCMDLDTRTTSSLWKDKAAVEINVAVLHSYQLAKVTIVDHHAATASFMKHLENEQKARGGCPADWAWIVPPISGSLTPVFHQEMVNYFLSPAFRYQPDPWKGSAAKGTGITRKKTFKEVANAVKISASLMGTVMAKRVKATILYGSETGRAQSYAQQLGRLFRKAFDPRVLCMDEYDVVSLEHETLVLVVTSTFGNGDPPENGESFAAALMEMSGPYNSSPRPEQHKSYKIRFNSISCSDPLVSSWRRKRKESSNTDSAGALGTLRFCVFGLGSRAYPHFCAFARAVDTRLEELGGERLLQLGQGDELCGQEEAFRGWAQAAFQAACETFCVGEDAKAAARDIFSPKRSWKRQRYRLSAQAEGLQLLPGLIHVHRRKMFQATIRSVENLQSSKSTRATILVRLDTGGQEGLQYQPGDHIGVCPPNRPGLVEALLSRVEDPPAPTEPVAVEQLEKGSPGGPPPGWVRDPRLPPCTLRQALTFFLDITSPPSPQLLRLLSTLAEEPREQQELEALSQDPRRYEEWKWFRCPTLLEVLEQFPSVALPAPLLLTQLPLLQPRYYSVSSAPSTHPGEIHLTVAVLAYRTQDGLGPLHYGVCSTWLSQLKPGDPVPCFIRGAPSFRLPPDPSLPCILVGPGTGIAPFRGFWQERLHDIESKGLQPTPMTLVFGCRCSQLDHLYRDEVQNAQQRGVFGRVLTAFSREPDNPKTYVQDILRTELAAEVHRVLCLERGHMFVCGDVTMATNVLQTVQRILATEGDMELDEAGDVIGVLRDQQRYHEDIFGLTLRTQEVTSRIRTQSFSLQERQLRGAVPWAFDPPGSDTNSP

[7] = biological target: eNOS (Rat) (Rattus norvegicus, UniProt Q62600); experiment: eNOS (Rat) enzyme assay; assay type: biochemical; settings: values in parentheses, read-out: eNOS IC50 (rodent data in parentheses)
Sequence of eNOS (Rat) (Q62600 2-1202): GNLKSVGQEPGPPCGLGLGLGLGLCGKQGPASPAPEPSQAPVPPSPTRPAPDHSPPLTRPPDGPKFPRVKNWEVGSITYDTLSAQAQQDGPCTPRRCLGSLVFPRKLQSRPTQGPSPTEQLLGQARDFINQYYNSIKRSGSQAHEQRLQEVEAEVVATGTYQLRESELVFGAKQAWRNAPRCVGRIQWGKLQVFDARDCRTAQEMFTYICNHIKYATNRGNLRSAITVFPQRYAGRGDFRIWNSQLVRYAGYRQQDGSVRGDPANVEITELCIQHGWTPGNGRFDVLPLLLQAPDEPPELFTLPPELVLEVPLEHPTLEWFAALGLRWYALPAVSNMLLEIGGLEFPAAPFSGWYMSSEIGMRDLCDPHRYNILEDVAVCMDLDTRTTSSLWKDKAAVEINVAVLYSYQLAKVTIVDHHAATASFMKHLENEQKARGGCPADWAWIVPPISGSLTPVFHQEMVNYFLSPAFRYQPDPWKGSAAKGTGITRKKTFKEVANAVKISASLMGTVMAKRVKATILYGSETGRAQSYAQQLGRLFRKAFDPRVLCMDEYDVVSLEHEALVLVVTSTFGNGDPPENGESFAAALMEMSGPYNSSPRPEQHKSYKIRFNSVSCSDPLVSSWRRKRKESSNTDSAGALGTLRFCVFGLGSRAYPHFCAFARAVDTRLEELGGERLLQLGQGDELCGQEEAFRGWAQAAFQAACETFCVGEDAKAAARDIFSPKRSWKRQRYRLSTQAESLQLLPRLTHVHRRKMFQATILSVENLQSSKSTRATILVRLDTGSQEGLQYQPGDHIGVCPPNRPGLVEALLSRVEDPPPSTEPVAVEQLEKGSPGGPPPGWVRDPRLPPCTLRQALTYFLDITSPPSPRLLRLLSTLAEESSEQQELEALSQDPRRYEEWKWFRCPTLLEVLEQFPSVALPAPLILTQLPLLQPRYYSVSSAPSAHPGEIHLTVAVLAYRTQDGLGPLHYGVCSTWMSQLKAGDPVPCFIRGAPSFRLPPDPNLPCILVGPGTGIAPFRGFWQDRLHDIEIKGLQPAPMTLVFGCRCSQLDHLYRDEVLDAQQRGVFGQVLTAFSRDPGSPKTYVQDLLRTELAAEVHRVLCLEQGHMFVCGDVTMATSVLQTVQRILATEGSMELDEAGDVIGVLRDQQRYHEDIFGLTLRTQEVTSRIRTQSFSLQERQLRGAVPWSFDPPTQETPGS

[8] = biological target: nNOS (Rat) (Rattus norvegicus, UniProt P29476); experiment: nNOS (Rat) enzyme assay; assay type: biochemical; settings: values in parentheses
Experimental: (§1) nNOS (Rat), eNOS (Rat) and iNOS (Mouse) Enzyme Assay Recombinant rat or mouse NO synthases (iNOS, eNOS, nNOS) were expressed in Sf9 cells (Sigma), 36 mg prot/ml (Bradford). […] Inhibition of NOS was determined by measuring the formation of L-[3H] citrulline from L-[3H] arginine. […] Stop buffer:100 mM Hepes, pH 5.5, 3 mM EDTA, 3 mM EGTA.

[9] = test system: sciatic nerve cuff-implanted rats; experiment: Sciatic Nerve Cuff model, mechanical allodynia (von Frey hair); assay type: in vivo, rat; settings: i.p 30 mg/kg
Experimental: The Sciatic Nerve Cuff model in rats (Mosconi and Kruger, 1996, Pain 64, 37-57) involves implantation of a plastic cuff around the sciatic nerve that results in painful neuropathy several days after surgery and induction of nociceptive afterdischarge in spinal neurons after innocuous peripheral mechanical stimulation (G. M. Pitcher and J. L. Henry). Mechanical allodynia is measured in the ipsilateral paw using calibrated von Frey hair testing. A single acute application of the drug (i.p. dosing) reverses the post-cuff pain thresholds to mechanical stimulus towards normal threshold levels.
The study utilized a cuff model (Mosconi T, Kruger L. Fixed-diameter polyethylene cuffs applied to the rat sciatic nerve induce a painful neuropathy: ultrastructural morphometric analysis of axonal alterations. Pain 64: 37-57, 1996) to examine the therapeutic effectiveness of the test compound 11 on a battery of behavioural endpoints in rats.
The testing chamber consists of a 30×30×30 cm Plexiglas box with a clear Plexiglas floor. This floor contained 0.5 cm diameter holes that are spaced 1.5 cm apart, and is positioned over a mirror, which allows an unobstructed view of the rat paws. Animals are placed in the testing chamber and allowed to acclimatize for 30 min prior to testing. von Frey filaments (Stoelting Co., Illinois, USA) are applied to the soft tissue of the plantar surface of the hind paw to determine the withdrawal threshold. The first filament applied corresponds to a force of 4.31 grams. […] A 50% response threshold is calculated according to the response pattern observed (described by Chaplan et al. 1994). […]
A baseline reading with von Frey hairs is taken before model induction. Thus rats are acclimatized to the testing chamber and readings are taken for at least three days for the baseline before any surgery. After the surgery von Frey hair testing for any development of mechanical sensitivity is assessed. […]

[10] = biological target: iNOS (Mouse) (Mus musculus, UniProt P29477); experiment: iNOS (Mouse) enzyme assay; assay type: biochemical; settings: values in parentheses, read-out: iNOS IC50 (rodent data in parentheses)
Experimental: as §1, with “EGTA. Enzyme and inhibitor were pre-incubated for 35 min in the presence of NADPH before addition of arginine to initiate the reaction.” for “EGTA.”

[11] = test system: sciatic nerve cuff-implanted rats; experiment: Sciatic Nerve Cuff model, cold plate test (paw lifts); assay type: in vivo, rat; settings: daily i.p. 30 mg/kg; cold plate 4±2° C.; 10-minute test period; average
Description: The animal will be placed into a box of approximately 12×12×12 inches. The bottom is filled with an ice-saline mixture and a metal plate is placed just on top of this mixture. […]
[…] Post-testing treatment—the feet will be wiped with a soft cloth or paper towel and the animal will be placed back in its home cage for five minutes. An allowance will be made for the time necessary to transfer to as well as adaptation to the next testing apparatus.
The method of inducing peripheral neuropathy is by implantation of a single cuff around the sciatic nerve, modified from the method described by Mosconi and Kruger (1996), where two to four cuffs were used. Rats are anaesthetized with a combination of ketamine (5 mg/100 g) and xylazine (0.5 mg/100 g), i.p. The left sciatic nerve is exposed after blunt dissection of overlying muscle and freed from surrounding tissue. A cuff made of a 2 mm segment of polyethylene (PE-90) tubing (Intramedic PE-90, Clay Adams, Division of Becton Dickinson, Parsippany, N.J.) slit longitudinally is fit around the nerve. Subsequently the muscle is sutured, and skin closed using suture clips. Antibiotic ointment (Nitrofurazone 0.2%) is applied over the wound, and 0.03 ml of the antibiotic Tribrissen 24% (trimethoprim-sulfadiazine) is injected subcutaneously. […]

[12] = test system: sciatic nerve cuff-implanted rats; experiment: Sciatic Nerve Cuff model, hind leg weight bearing; assay type: in vivo, rat
Experimental: The method of inducing peripheral neuropathy is by implantation of a single cuff around the sciatic nerve, modified from the method described by Mosconi and Kruger (1996), where two to four cuffs were used. Rats are anaesthetized with a combination of ketamine (5 mg/100 g) and xylazine (0.5 mg/100 g), i.p. The left sciatic nerve is exposed after blunt dissection of overlying muscle and freed from surrounding tissue. A cuff made of a 2 mm segment of polyethylene (PE-90) tubing (Intramedic PE-90, Clay Adams, Division of Becton Dickinson, Parsippany, N.J.) slit longitudinally is fit around the nerve. Subsequently the muscle is sutured, and skin closed using suture clips. Antibiotic ointment (Nitrofurazone 0.2%) is applied over the wound, and 0.03 ml of the antibiotic Tribrissen 24% (trimethoprim-sulfadiazine) is injected subcutaneously. Animals are placed under a heating lamp until they recovered from the anaesthetic and then returned to their home cage.

[13] = test system: patients with cardiogenic shock; settings: randomized trial of 30 patients; reduced from 67%; cited from earlier work
[14] = test system: migraine patients; settings: human migraine; single i.v. administration; cited from earlier work
[15] = test system: patients with persistent shock; settings: 11 patients with persistent shock; up to 30 days; cited from earlier work
[16] = test system: migraine patients; settings: human migraine; open pilot study; cited from earlier work
[17] = human recombinant nNOS, values without parentheses
[18] = human recombinant eNOS, values without parentheses

SMILES: CN1CCCC1CCN1CCCc2cc(NC(=N)c3cccs3)ccc21 (single isomer, unassigned) [Example 23, N-(1-(2-(1-Methylpyrrolidin-2-yl)ethyl)-1,2,3,4-tetrahydroquinolin-6-yl)thiophene-2-carboximidamide]
- antiallodynic effect in the Chung model [1]: antiallodynic effect
- Selectivity eNOS/nNOS ([2]; human enzymes, ratio of eNOS IC50 to nNOS IC50): 157
- IC50 [2, 17]: 0.26 µM
- antihyperalgesic effect in the Chung model [3]: clear antihyperalgesic effect
- hindpaw allodynia after inflammatory soup (IS) ([4]; 30 mg/kg p.o. 15 minutes prior to IS): reverses the development of hindpaw allodynia
- IC50 [5]: > 100 µM
- IC50 [6, 18]: 41 µM
- IC50 [7]: > 100 µM
- Selectivity eNOS/nNOS (rodent data in parentheses) ([8]; rodent enzymes): (>434)

- IC50 [2, 17]: 0.253 µM
- IC50 [2]: 0.43 µM
- IC50 ([5]; human recombinant iNOS, values without parentheses): 0.85 µM
- IC50 [6, 18]: 37.7 µM
- IC50 [6]: 58.7 µM
- IC50 [10]: > 100 µM
- IC50 [7]: > 100 µM
- IC50 ([8]; rat nNOS, read-out: nNOS IC50 (rodent data in parentheses)): 0.46 µM
SMILES: CN(C)CCN1CCCc2cc(NC(=N)c3cccs3)ccc21 [Example 11, N-(1-(2-(dimethylamino)ethyl)-1,2,3,4-tetrahydroquinolin-6-yl)thiophene-2-carboximidamide]
- antihyperalgesic effect in the Chung model [3]: clear antihyperalgesic effect
- tactile hypersensitivity, pre-injection reading on the second drug-administration day ([9]; latent effect of the first dose): sustained reversal of the tactile hypersensitivity
- tactile sensitivity on successive days of administration ([9]; successive days): no further overt effect
- tactile hypersensitivity (von Frey) after first injection ([9]; two and four hours after the first injection): reversed the tactile hypersensitivity
- paw lifts in the cold plate test [11]: approximately nine
- hind paw weight placement 24 hours after the first dose ([12]; 24 hours after the first dose): preferential placement on the contralateral hind paw
- hind paw weight placement on successive days ([12]; drug administration on successive days): shift in hind paw weight placement toward even distribution on each day
- hind paw weight placement, first day ([12]; first day, two hours and four hours after drug administration): shift in weight placement toward even distribution between the two hind paws

SMILES: COC(=O)[C@@H](N)CCCNC(=N)N[N+](=O)[O-] [L-NAME, N^G-Nitro-L-arginine methyl ester]
- patient mortality [13]: 27%

SMILES: CNC(=N)NCCC[C@H](N)C(=O)O [L-NMMA, N^G-monomethyl-L-arginine]
- response rate [14]: 67%
- hindpaw allodynia after inflammatory soup (IS) ([4]; 10 mg/kg i.v 15 minutes prior to IS): reverses the development of hindpaw allodynia
- survival rate [15]: 72%

SMILES: C/C1=C2/[N-][C@H]([C@H](CC(N)=O)[C@@]2(C)CCC(=O)NC[C@@H](C)OP(=O)([O-])O[C@H]2[C@@H](O)[C@@H](n3cnc4cc(C)c(C)cc43)O[C@@H]2CO)[C@]2(C)N=C(/C(C)=C3N=C(/C=C4N=C1[C@@H](CCC(N)=O)C\4(C)C)[C@@H](CCC(N)=O)[C@]\3(C)CC(N)=O)[C@@H](CCC(N)=O)[C@]2(C)CC(N)=O.[Co+3].[OH-] [hydroxycobalamin]
- patients with a reduction in the frequency of migraine attack of 50% [16]: 53%
